“Also recorded” adds a separate entry of the source.
What was measured:
[1] = biological target: T1, rEfb-N binding to Fg (Homo sapiens, UniProt P02671+P02675+P02679); test: Competition ELISA, peptide inhibition of rEfb-N (Efb 30-104) binding to Fg; conditions: increasing concentration of peptides; 2 nM GST fusion protein
T1 construct: full-length human Fibrinogen (diluted in PBS, Enzyme research); purchased Enzyme research; host or cells: Efb probe made in E. coli
T1 sequence (P02671 20-629 limits assumed): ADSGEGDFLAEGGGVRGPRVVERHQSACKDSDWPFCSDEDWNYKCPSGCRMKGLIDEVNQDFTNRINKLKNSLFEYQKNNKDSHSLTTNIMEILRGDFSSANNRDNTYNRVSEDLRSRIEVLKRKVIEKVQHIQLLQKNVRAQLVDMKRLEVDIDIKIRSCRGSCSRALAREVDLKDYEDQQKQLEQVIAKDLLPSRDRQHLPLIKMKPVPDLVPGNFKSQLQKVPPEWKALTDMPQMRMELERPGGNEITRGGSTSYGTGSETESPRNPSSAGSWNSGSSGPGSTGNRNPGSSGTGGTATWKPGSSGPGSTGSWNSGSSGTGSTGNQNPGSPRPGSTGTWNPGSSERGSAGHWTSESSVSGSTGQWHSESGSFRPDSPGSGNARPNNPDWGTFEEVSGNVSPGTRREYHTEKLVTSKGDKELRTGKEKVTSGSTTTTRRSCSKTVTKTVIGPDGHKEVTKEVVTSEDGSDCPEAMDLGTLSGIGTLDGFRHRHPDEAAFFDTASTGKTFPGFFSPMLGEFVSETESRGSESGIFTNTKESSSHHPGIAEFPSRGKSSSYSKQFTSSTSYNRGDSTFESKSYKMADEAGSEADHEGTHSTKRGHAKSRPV
T1 sequence (P02675 31-491): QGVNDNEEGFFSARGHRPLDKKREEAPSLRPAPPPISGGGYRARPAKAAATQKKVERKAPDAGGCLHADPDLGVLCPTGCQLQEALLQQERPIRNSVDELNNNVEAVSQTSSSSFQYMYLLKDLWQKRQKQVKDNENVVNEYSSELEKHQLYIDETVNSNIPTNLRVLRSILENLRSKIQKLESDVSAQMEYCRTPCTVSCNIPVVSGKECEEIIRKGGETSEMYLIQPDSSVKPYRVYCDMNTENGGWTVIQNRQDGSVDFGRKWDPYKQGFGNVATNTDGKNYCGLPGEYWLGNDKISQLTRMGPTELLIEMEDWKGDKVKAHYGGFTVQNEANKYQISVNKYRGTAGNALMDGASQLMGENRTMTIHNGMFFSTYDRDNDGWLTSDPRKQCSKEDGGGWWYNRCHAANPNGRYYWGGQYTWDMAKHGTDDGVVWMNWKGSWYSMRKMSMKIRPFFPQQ
T1 sequence (P02679 27-453): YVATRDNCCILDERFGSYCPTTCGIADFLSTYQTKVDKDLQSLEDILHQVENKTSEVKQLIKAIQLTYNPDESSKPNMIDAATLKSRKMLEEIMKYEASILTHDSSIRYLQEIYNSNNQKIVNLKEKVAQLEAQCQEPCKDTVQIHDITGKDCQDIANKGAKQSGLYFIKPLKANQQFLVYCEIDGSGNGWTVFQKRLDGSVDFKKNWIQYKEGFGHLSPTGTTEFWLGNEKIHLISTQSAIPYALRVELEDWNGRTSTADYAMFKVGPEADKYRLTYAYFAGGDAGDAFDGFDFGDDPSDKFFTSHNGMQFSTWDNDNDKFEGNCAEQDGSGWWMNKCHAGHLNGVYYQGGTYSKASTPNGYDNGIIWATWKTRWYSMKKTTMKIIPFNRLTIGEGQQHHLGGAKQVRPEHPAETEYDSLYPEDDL
Description: Coa-F contains an Efb like fibrinogen binding motif. FIG. 11A is an image of a ClustalW alignment of amino acid sequence from Efb-O (Efb 68-98) and Coa from Newman strain (col-Newman). Sequence similarity was identified at Coa 474-505. Bold letters denote conserved residues and underlined letters represent similar residues. FIGS. 11B and 11C show a comparison of amino acid sequence of Efb-O with Coa 474-505 (FIG. 11B) and Coa 506-532 (FIG. 11C). Large letters in Efb-O indicate the residues important for Fg binding. The red letters show the identical residues and the yellow letters indicate the similar residues. […] Increasing concentration of Coa peptides was incubated with 2 nM GST fusion proteins in Fg-coated microtiter wells. Closed square, sCoa-O; closed circle, sCoa-RI; closed triangle, sEfb-O.
A peptide was synthesized that corresponds to the Coa-O sequence (sCoa-O) and determined its Fg binding activity in a competition ELISA. Microtiter wells were coated with Fg and binding of the recombinant N-terminal segment of Efb (rEfb-N), that harbors the two Fg binding sites, was quantitated in the presence of increasing concentration of different synthetic peptides.
In the case of peptide inhibition assay, various concentration of Efb or Coa peptides were mixed with a fixed concentration of Coa-GST or Efb-GST fusion proteins (5-10 nM) in TBS and the bound GST fusion proteins were detected through incubation with HRP-conjugated rabbit anti-GST polyclonal antibodies (5000× dilution). All proteins were diluted in TBS containing 1% BSA and 0.05% TWEEN® 20 and the ELISA assays were carried out at room temperature.

[2] = tested on: THP-1 cells; test: THP-1 cell adherence to immobilized Fg; format: cell-based; conditions: for inhibition of THP-1 adherence to immobilized Fg: M1/70 20 μg/ml, rEfb 0.2 μM, rCoa 0.5 μM, peptides 0.5 μM each
Experimental: Cell adherence assay using cell lines—A monocytic cell line THP-1 cell stably expressing αMβ2 was maintained in RPMI1640 supplemented with 10% fetal bovine serum, […] L-glutamine, 100 units/ml penicillin and 100 μg/ml streptomycin. Prior to use, cells were harvested by centrifuge, washed and suspended in RPMI 1640/1% human serum albumin. For cell adherence assays, 48-well plates were coated with 200 μl of Fibrinogen (10 μg/ml) overnight at 4° C. followed by 1 hour at 37° C. before blocking with 1% Polyvinylpyrrolidone (PVP 3600 kDa) for 45 minutes at 37° C. Subsequently, the cells were seeded 2×10^5/well in the presence or absence of Coa or Efb recombinant proteins or peptides and incubated at 37° C. for 25 minutes. Non-adherent cells were removed by washing gently three times with PBS/1% BSA. Adherent cells were quantitated with CyQuant kit according to the manufacturer's manual.

sCoa-RI: synthetic peptide, first 27 residues of repeat region, Coa 506-532 (ETNAYNVTTHANGQVSYGARPTYKKPS)
inhibition of rEfb-N binding to Fg [1]: effectively inhibited rEfb-N binding to Fg; also recorded: somewhat more effective inhibitor than sCoa-O | inhibition of THP-1 adherence to immobilized Fg [2]: did not inhibit THP-1 adherence

sEfb-O: synthetic peptide mimicking the high affinity Fg-binding motif in Efb (Efb 68-98) (KYIKFKHDYNILEFNDGTFEYGARPQFN)
inhibition of rEfb-N binding to Fg [1]: potently inhibited rEfb-N binding to the Fg surface; also recorded: effectively inhibited rEfb-N binding to Fg | inhibition of THP-1 adherence to immobilized Fg [2]: did not inhibit THP-1 adherence | reversal of inhibition of THP-1 adherence elicited by rEfb or rCoa ([2]; peptide 50 μM preincubated with rEfb (0.2 μM) or rCoa (0.2 μM)): reverses the inhibitory activities
